According to the supplement of paper PMC10307832:

Experiments:
Experiment in all cases: relative viability (nuclei count vs DMSO), 5 days (fraction); higher = more cells survive
[1] = tested on: COR-L23
Summary of the method: (§1)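 The day after seeding in 1536-well plates, lung cancer cell lines were treated by pin tool with a single drug, or with a fixed anchor-drug dose together with five library-drug doses (not always all listed) in √10 steps. After 5 days, a combined fix-and-stain solution (final 0.05% Triton X-100, 1% formaldehyde, 1 ug/ml Hoechst) was added. Nuclei counted on 4× images gave relative viability as treated counts over vehicle counts, reported as the median of duplicate plates.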

[2] = tested on: ChaGo-K-1
Summary of the method: as §1

[3] = tested on: EMC-BAC-2
Summary of the method: as §1

[4] = tested on: EPLC-272H
Summary of the method: as §1

[5] = tested on: H3255
Summary of the method: as §1

[6] = tested on: HCC-44
Summary of the method: as §1

[7] = tested on: HCC-827
Summary of the method: as §1

[8] = tested on: LCLC-103H
Summary of the method: as §1

[9] = tested on: LU99A
Summary of the method: as §1

[10] = tested on: NCI-H1395
Summary of the method: as §1

[11] = tested on: NCI-H1651
Summary of the method: as §1

[12] = tested on: NCI-H1793
Summary of the method: as §1

[13] = tested on: NCI-H1944
Summary of the method: as §1

[14] = tested on: NCI-H2023
Summary of the method: as §1

[15] = tested on: NCI-H2085
Summary of the method: as §1

[16] = tested on: NCI-H2087
Summary of the method: as §1

[17] = tested on: NCI-H2405
Summary of the method: as §1

[18] = tested on: NCI-H520
Summary of the method: as §1

[19] = tested on: NCI-H650
Summary of the method: as §1

[20] = tested on: NCI-H838
Summary of the method: as §1

[21] = tested on: SK-MES-1
Summary of the method: as §1

Question: Which results are given for Nc1ccn([C@@H]2O[C@H](CO)[C@@H](O)[C@@H]2O)c(=O)n1 [Cytarabine] + O=C(c1cc(Cc2n[nH]c(=O)c3ccccc23)ccc1F)N1CCN(C(=O)C2CC2)CC1 [Olaparib] (partner 8 µM)?
Answer: relative viability ([1]; first compound 0.005 µM): 0.305; relative viability ([1]; first compound 0.01581 µM): 0.309; relative viability ([1]; first compound 0.05 µM): 0.275; relative viability ([1]; first compound 0.1581 µM): 0.131; relative viability ([1]; first compound 0.5 µM): 0.124; relative viability ([2]; first compound 0.005 µM): 0.414; relative viability ([2]; first compound 0.01581 µM): 0.417; relative viability ([2]; first compound 0.05 µM): 0.32; relative viability ([2]; first compound 0.1581 µM): 0.238; relative viability ([2]; first compound 0.5 µM): 0.209; relative viability ([3]; first compound 0.005 µM): 0.53; relative viability ([3]; first compound 0.01581 µM): 0.449; relative viability ([3]; first compound 0.05 µM): 0.369; relative viability ([3]; first compound 0.1581 µM): 0.287; relative viability ([3]; first compound 0.5 µM): 0.27; relative viability ([4]; first compound 0.005 µM): 0.476; relative viability ([4]; first compound 0.01581 µM): 0.57; relative viability ([4]; first compound 0.05 µM): 0.607; relative viability ([4]; first compound 0.1581 µM): 0.244; relative viability ([4]; first compound 0.5 µM): 0.123; relative viability ([5]; first compound 0.005 µM): 0.569; relative viability ([5]; first compound 0.01581 µM): 0.552; relative viability ([5]; first compound 0.05 µM): 0.495; relative viability ([5]; first compound 0.1581 µM): 0.526; relative viability ([5]; first compound 0.5 µM): 0.446; relative viability ([6]; first compound 0.005 µM): 1.03; relative viability ([6]; first compound 0.01581 µM): 1.05; relative viability ([6]; first compound 0.05 µM): 0.975; relative viability ([6]; first compound 0.1581 µM): 0.896; relative viability ([6]; first compound 0.5 µM): 0.848; relative viability ([7]; first compound 0.005 µM): 0.459; relative viability ([7]; first compound 0.01581 µM): 0.367; relative viability ([7]; first compound 0.05 µM): 0.0662; relative viability ([7]; first compound 0.1581 µM): 0.159; relative viability ([7]; first compound 0.5 µM): 0.189; relative viability ([8]; first compound 0.005 µM): 0.717; relative viability ([8]; first compound 0.01581 µM): 0.725; relative viability ([8]; first compound 0.05 µM): 0.906; relative viability ([8]; first compound 0.1581 µM): 0.803; relative viability ([8]; first compound 0.5 µM): 0.792; relative viability ([9]; first compound 0.005 µM): 0.307; relative viability ([9]; first compound 0.01581 µM): 0.28; relative viability ([9]; first compound 0.05 µM): 0.24; relative viability ([9]; first compound 0.1581 µM): 0.24; relative viability ([9]; first compound 0.5 µM): 0.241; relative viability ([10]; first compound 0.005 µM): 0.463; relative viability ([10]; first compound 0.01581 µM): 0.432; relative viability ([10]; first compound 0.05 µM): 0.396; relative viability ([10]; first compound 0.1581 µM): 0.41; relative viability ([10]; first compound 0.5 µM): 0.335; relative viability ([11]; first compound 0.005 µM): 0.187; relative viability ([11]; first compound 0.01581 µM): 0.193; relative viability ([11]; first compound 0.05 µM): 0.181; relative viability ([11]; first compound 0.1581 µM): 0.199; relative viability ([11]; first compound 0.5 µM): 0.168; relative viability ([12]; first compound 0.005 µM): 0.989; relative viability ([12]; first compound 0.01581 µM): 0.847; relative viability ([12]; first compound 0.05 µM): 0.887; relative viability ([12]; first compound 0.1581 µM): 0.359; relative viability ([12]; first compound 0.5 µM): 0.244; relative viability ([13]; first compound 0.005 µM): 0.438; relative viability ([13]; first compound 0.01581 µM): 0.33; relative viability ([13]; first compound 0.05 µM): 0.322; relative viability ([13]; first compound 0.1581 µM): 0.204; relative viability ([13]; first compound 0.5 µM): 0.156; relative viability ([14]; first compound 0.005 µM): 0.382; relative viability ([14]; first compound 0.01581 µM): 0.276; relative viability ([14]; first compound 0.05 µM): 0.236; relative viability ([14]; first compound 0.1581 µM): 0.0812; relative viability ([14]; first compound 0.5 µM): 0.0898; relative viability ([15]; first compound 0.005 µM): 0.718; relative viability ([15]; first compound 0.01581 µM): 0.727; relative viability ([15]; first compound 0.05 µM): 0.802; relative viability ([15]; first compound 0.1581 µM): 0.655; relative viability ([15]; first compound 0.5 µM): 0.61; relative viability ([16]; first compound 0.005 µM): 0.413; relative viability ([16]; first compound 0.01581 µM): 0.618; relative viability ([16]; first compound 0.05 µM): 0.578; relative viability ([16]; first compound 0.1581 µM): 0.348; relative viability ([16]; first compound 0.5 µM): 0.19; relative viability ([17]; first compound 0.005 µM): 0.737; relative viability ([17]; first compound 0.01581 µM): 0.605; relative viability ([17]; first compound 0.05 µM): 0.509; relative viability ([17]; first compound 0.1581 µM): 0.396; relative viability ([17]; first compound 0.5 µM): 0.336; relative viability ([18]; first compound 0.005 µM): 0.276; relative viability ([18]; first compound 0.01581 µM): 0.272; relative viability ([18]; first compound 0.05 µM): 0.337; relative viability ([18]; first compound 0.1581 µM): 0.263; relative viability ([18]; first compound 0.5 µM): 0.239; relative viability ([19]; first compound 0.005 µM): 0.363; relative viability ([19]; first compound 0.01581 µM): 0.277; relative viability ([19]; first compound 0.05 µM): 0.169; relative viability ([19]; first compound 0.1581 µM): 0.14; relative viability ([19]; first compound 0.5 µM): 0.156; relative viability ([20]; first compound 0.005 µM): 0.633; relative viability ([20]; first compound 0.01581 µM): 0.655; relative viability ([20]; first compound 0.05 µM): 0.643; relative viability ([20]; first compound 0.1581 µM): 0.278; relative viability ([20]; first compound 0.5 µM): 0.197; relative viability ([21]; first compound 0.005 µM): 0.619; relative viability ([21]; first compound 0.01581 µM): 0.527; relative viability ([21]; first compound 0.05 µM): 0.313; relative viability ([21]; first compound 0.1581 µM): 0.173; relative viability ([21]; first compound 0.5 µM): 0.183
